Results reported in the supplement of paper PMC10307832.

Columns and labels:
Test in all cases: relative viability (nuclei count vs DMSO), 5 days (fraction); higher = more cells survive
Omipalisib + Trametinib = compound: COc1ncc(-c2ccc3nccc(-c4ccnnc4)c3c2)cc1NS(=O)(=O)c1ccc(F)cc1F [Omipalisib] + CC(=O)Nc1cccc(-n2c(=O)n(C3CC3)c(=O)c3c(Nc4ccc(I)cc4F)n(C)c(=O)c(C)c32)c1 [Trametinib] (partner 0.02 µM)
Method in brief: (§1)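 Relative viability equals treated-well nuclei counts divided by vehicle-well nuclei counts. Counts came from 4× images of lung cancer cell lines grown in 1536-well plates for 5 days after pin-tool dosing on the day after seeding. Dosing used one drug alone or a fixed anchor-drug dose plus five library-drug doses (not always all listed) in √10 steps, and values are medians of duplicate plates.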

Omipalisib + Bortezomib = compound: COc1ncc(-c2ccc3nccc(-c4ccnnc4)c3c2)cc1NS(=O)(=O)c1ccc(F)cc1F [Omipalisib] + CC(C)C[C@H](NC(=O)[C@H](Cc1ccccc1)NC(=O)c1cnccn1)B(O)O [Bortezomib] (partner 0.002 µM)
Method in brief: as §1

Omipalisib + Foretinib = compound: COc1ncc(-c2ccc3nccc(-c4ccnnc4)c3c2)cc1NS(=O)(=O)c1ccc(F)cc1F [Omipalisib] + COc1cc2c(Oc3ccc(NC(=O)C4(C(=O)Nc5ccc(F)cc5)CC4)cc3F)ccnc2cc1OCCCN1CCOCC1 [Foretinib] (partner 0.25 µM)
Method in brief: as §1

Omipalisib + OSI-027 = compound: COc1ncc(-c2ccc3nccc(-c4ccnnc4)c3c2)cc1NS(=O)(=O)c1ccc(F)cc1F [Omipalisib] + COc1cccc2cc(-c3nc([C@H]4CC[C@H](C(=O)O)CC4)n4ncnc(N)c34)[nH]c12 [OSI-027] (partner 0.5 µM)
Method in brief: as §1

Omipalisib + Alpelisib = compound: COc1ncc(-c2ccc3nccc(-c4ccnnc4)c3c2)cc1NS(=O)(=O)c1ccc(F)cc1F [Omipalisib] + Cc1nc(NC(=O)N2CCC[C@H]2C(N)=O)sc1-c1ccnc(C(C)(C)C(F)(F)F)c1 [Alpelisib] (partner 2 µM)
Method in brief: as §1

Omipalisib + Lapatinib = compound: COc1ncc(-c2ccc3nccc(-c4ccnnc4)c3c2)cc1NS(=O)(=O)c1ccc(F)cc1F [Omipalisib] + CS(=O)(=O)CCNCc1ccc(-c2ccc3ncnc(Nc4ccc(OCc5cccc(F)c5)c(Cl)c4)c3c2)o1 [Lapatinib] (partner 2 µM)
Method in brief: as §1

Cell Line	relative viability (Omipalisib + Trametinib; first compound 0.0003 µM)	relative viability (Omipalisib + Trametinib; first compound 0.003 µM)	relative viability (Omipalisib + Trametinib; first compound 0.03 µM)	relative viability (Omipalisib + Bortezomib; first compound 0.0003 µM)	relative viability (Omipalisib + Bortezomib; first compound 0.003 µM)	relative viability (Omipalisib + Bortezomib; first compound 0.03 µM)	relative viability (Omipalisib + Foretinib; first compound 0.0003 µM)	relative viability (Omipalisib + Foretinib; first compound 0.003 µM)	relative viability (Omipalisib + Foretinib; first compound 0.03 µM)	relative viability (Omipalisib + OSI-027; first compound 0.0003 µM)	relative viability (Omipalisib + OSI-027; first compound 0.003 µM)	relative viability (Omipalisib + OSI-027; first compound 0.03 µM)	relative viability (Omipalisib + Alpelisib; first compound 0.0003 µM)	relative viability (Omipalisib + Alpelisib; first compound 0.003 µM)	relative viability (Omipalisib + Alpelisib; first compound 0.03 µM)	relative viability (Omipalisib + Lapatinib; first compound 0.0003 µM)	relative viability (Omipalisib + Lapatinib; first compound 0.003 µM)	relative viability (Omipalisib + Lapatinib; first compound 0.03 µM)
LCLC-103H	0.602	0.524	0.401	0.943	0.891	0.732	0.676	0.418	0.236	0.436	0.354	0.313	0.96	0.889	0.643	–	–	–
201T	0.681	0.658	0.465	1.13	1.11	0.777	1.12	0.864	0.308	0.786	0.494	0.398	1.02	0.999	0.735	1.02	0.935	0.936
NCI-H1792	0.42	0.169	0.116	0.872	0.927	0.398	–	–	–	0.653	0.404	0.224	0.664	0.6	0.236	0.864	0.88	0.301
LXF-289	0.65	0.747	0.407	1.03	0.99	0.808	0.977	0.912	0.626	0.764	0.493	0.357	1.06	1.02	0.792	0.894	0.956	0.785
LCLC-97TM1	0.179	0.104	0.117	0.589	0.477	0.146	0.934	0.468	0.189	0.589	0.251	0.2	0.238	0.227	0.145	0.976	0.323	0.223
NCI-H1395	1.05	0.83	0.615	–	–	–	0.916	0.886	0.586	0.608	0.458	0.527	1	0.906	0.7	0.983	0.783	0.608
CAL-12T	0.299	0.205	0.173	1.15	1.06	0.484	1.26	1.06	0.684	0.753	0.404	0.232	0.989	0.95	0.774	0.787	0.496	0.475
NCI-H1975	0.331	0.207	0.165	0.33	0.27	0.179	0.991	0.672	0.287	0.772	0.415	0.159	0.695	0.518	0.253	0.801	0.613	0.22
EKVX	0.42	0.347	0.152	1.01	0.777	0.401	0.649	0.801	0.183	0.612	0.371	0.256	0.85	0.72	0.397	0.198	0.17	0.131
